Activity calls are given as the source filed them. No cut-off for these calls is given here.
How the values were obtained:
[1] = tested on: GES1; test: Cytotoxicity against human GES1 cells assessed as reduction in survival rate after 24 to 72 hrs by SRB assay; type: cell-based; conditions: time 24-72 hrs
[2] = tested on: GES1; test: Cytotoxicity against human GES1 cells assessed as reduction in survival rate at 0 to 8 uM by SRB assay; type: cell-based; conditions: ges1, 8 µM, TDE = time-dependent effect, dose 0-8 µM
[3] = tested on: ECa-109 cell line; test: Induction of apoptosis in human EC-109 cells assessed as apoptotic rate at 0.75 uM after 24 hrs by Annexin V-FITC/propidium iodide staining based flow cytometry (reference value: 5.3 %); type: functional
[4] = tested on: ECa-109 cell line; test: Induction of apoptosis in human EC-109 cells assessed as apoptotic rate at 1.5 uM after 24 hrs by Annexin V-FITC/propidium iodide staining based flow cytometry (reference value: 5.3 %); type: functional
[5] = tested on: ECa-109 cell line; test: Induction of apoptosis in human EC-109 cells assessed as apoptotic rate at 0.75 uM after 48 hrs by Annexin V-FITC/propidium iodide staining based flow cytometry (reference value: 3.2 %); type: functional
[6] = tested on: ECa-109 cell line; test: Induction of mitochondrial depolarization in human EC-109 cells assessed as depolarized cell population at 3 uM measured after 24 hrs by JC1 dye based flow cytometry (reference value: 4.2 %); type: functional
[7] = tested on: ECa-109 cell line; test: Induction of apoptosis in human EC109 cells assessed as increase in cleaved caspase 3 expression after 24 hrs by Western blot analysis; type: functional, cell-based
[8] = tested on: ECa-109 cell line; test: Induction of apoptosis in human EC109 cells assessed as increase in cleaved PARP expression after 24 hrs by Western blot analysis; type: functional, cell-based
[9] = tested on: ECa-109 cell line; test: Induction of apoptosis in human EC109 cells assessed as increase in Bad expression after 24 hrs by Western blot analysis; type: functional, cell-based
[10] = tested on: ECa-109 cell line; test: Induction of apoptosis in human EC109 cells assessed as change in Bax expression at 0.75 to 3 uM after 24 hrs by Western blot analysis; type: functional, cell-based; conditions: dose 0.75-3 µM
[11] = tested on: ECa-109 cell line; test: Induction of apoptosis in human EC109 cells assessed as increase in cytochrome C protein expression incubated for 24 hrs by Western blot analysis; type: functional, cell-based
[12] = tested on: ECa-109 cell line; test: Induction of apoptosis in human EC109 cells assessed as increase in phosphorylated JNK expression incubated for 24 hrs by Western blot analysis; type: functional, cell-based
[13] = tested on: ECa-109 cell line; test: Induction of apoptosis in human EC-109 cells assessed as apoptotic rate at 3 uM after 24 hrs by Annexin V-FITC/propidium iodide staining based flow cytometry (reference value: 5.7 %); type: functional
[14] = tested on: ECa-109 cell line; test: Induction of apoptosis in human EC109 cells assessed as reduction in Bcl-2 expression at 3 uM incubated for 24 hrs in presence of N-acetylcysteine by Western blot analysis; type: functional, cell-based
[15] = tested on: ECa-109 cell line; test: Induction of apoptosis in human EC-109 cells xenografted in nude BALB/c mouse assessed as apparent cellular loosening at 20 to 40 mg/kg, ip administered once daily for 14 days by H and E staining based histopathological analysis; type: functional, organism-based; conditions: dose 20-40 mg/kg, time 14.0 day
[16] = tested on: ECa-109 cell line; test: Induction of apoptosis in human EC-109 cells xenografted in nude BALB/c mouse assessed as nuclear shrinkage at 20 to 40 mg/kg, ip administered once daily for 14 days by H and E staining based histopathological analysis; type: functional, organism-based; conditions: dose 20-40 mg/kg, time 14.0 day
[17] = tested on: ECa-109 cell line; test: Induction of apoptosis in human EC-109 cells xenografted in BALB/c mouse assessed as decrease in Bcl-2 expression in tumor tissue at 20 to 40 mg/kg, ip QD for 14 days by Western blotting analysis relative to control; type: functional, organism-based; conditions: dose 20-40 mg/kg, time 14.0 day
[18] = tested on: ECa-109 cell line; test: Induction of apoptosis in human EC-109 cells xenografted in BALB/c mouse assessed as change in Bax expression in tumor tissue at 40 mg/kg, ip QD for 14 days by Western blotting analysis relative to control; type: functional, organism-based; conditions: time 14.0 day
[19] = tested on: ECa-109 cell line; test: Induction of apoptosis in human EC-109 cells xenografted in BALB/c mouse assessed as increase in cleaved caspase 9 in tumor tissue at 40 mg/kg, ip QD for 14 days by Western blotting analysis relative to control; type: functional, organism-based; conditions: time 14.0 day
[20] = tested on: ECa-109 cell line; test: Induction of apoptosis in human EC-109 cells xenografted in BALB/c mouse assessed as increase in phosphorylated ASK1 in tumor tissue at 20 to 40 mg/kg, ip QD for 14 days by Western blotting analysis; type: functional, organism-based; conditions: dose 20-40 mg/kg, time 14.0 day
[21] = Toxicity in BALB/c mouse assessed as effect on WBC level at 40 mg/kg, ip administered once daily for 14 days (reference value: 4.42 +/- 0.79 10^9/L); type: organism-based; conditions: in vivo, 336 h, time 14 day
[22] = Toxicity in BALB/c mouse assessed as RDW at 40 mg/kg, ip administered once daily for 14 days (reference value: 14.18 +/- 0.26 %); type: organism-based; conditions: in vivo, 336 h, time 14 day
[23] = Toxicity in BALB/c mouse assessed as PLT at 40 mg/kg, ip administered once daily for 14 days (reference value: 788.60 +/- 71.35 10^9/L); type: organism-based; conditions: in vivo, 336 h, time 14 day
[24] = Toxicity in BALB/c mouse assessed as effect on red pulp and white pulp distribution in spleen at 20 to 40 mg/kg, ip administered once daily for 14 days by HE staining based assay; type: organism-based; conditions: in vivo, 336 h, dose 20-40 mg/kg, time 14 day
[25] = Toxicity in BALB/c mouse assessed as abnormalities in liver at 20 to 40 mg/kg, ip administered once daily for 14 days by HE staining based assay; type: organism-based; conditions: in vivo, 336 h, dose 20-40 mg/kg, time 14 day

## C=C1C(=O)[C@@]23[C@H](O)C[C@@H]4C(C)(C)CCC[C@@]4(COC(C)=O)[C@@H]2[C@@H](O)C[C@H]1[C@H]3OC(=O)c1ccc(CCl)cc1
[1]
  inhibition (INH): Dose-dependent effect
[2]
  inhibition (INH): Tde
[3]
  Activity: 23.3%
[4]
  Activity: 28.2%
[5]
  Activity: 78.9%
[6]
  Activity: 70.7%
[7]
  Activity: Dose-dependent effect
[8]
  Activity: Dose-dependent effect
[9]
  Activity: Dose-dependent effect
[10]
  Activity: inactive
[11]
  Activity: Dose-dependent effect
[12]
  Activity: Dose-dependent effect
[13]
  Activity: 33.7%
[14]
  Activity: inactive
[15]
  Activity: Active
[16]
  Activity: Active
[17]
  Activity: Active
[18]
  Activity: Active
[19]
  Activity: Active
[20]
  Activity: Active
[21]
  Activity: 4.21 10^9/L
[22]
  Activity: 14.73%
[23]
  Activity: 832.8 10^9/L
[24]
  Activity: Non-Toxic
[25]
  Activity: Non-Toxic

Reference: ChEMBL document CHEMBL4706557, “Synthesis and in vitro and in vivo biological evaluation of novel derivatives of flexicaulin A as antiproliferative agents” (Eur J Med Chem, 2020)
